How the values were obtained:
Type in all cases: cell-based
[1] = tested on: HER2 wild-type Ba/F3 cells; experiment: Ba/F3 cell proliferation assay, HER2 wild-type; details: Mus musculus, BaF3, 72 h, Celltiter-Glo cell viability; for GI50: read-out: HER2 WT/BaF3 GI50; for Emax: read-out: HER2 WT/BaF3 Imax %
Description: (§1) EGFR wild-type Ba/F3 cells (Cobioer, Cat. No. CBP73110) in the logarithmic growth phase were seeded into a 96-well plate at 2.5×10^3 cells/[…] in a growth medium, and HER2 wild-type Ba/F3 cells (Cobioer, Cat. No. CBP73110) or HER2 A775_G776insYVMA mutant Ba/F3 (Cobioer, Cat. No. CBP73184) in the logarithmic growth phase were seeded into a 96-well plate at 5×10^3 cells/100 μL in a growth medium.
(§2) The plates were placed in a cell incubator at 37° C. overnight. The compound diluted in 3-fold gradient with a medium was added to the plates at 100 μL/well the next day. All treatments were performed in triplicate. The plates were cultured in the cell incubator at 37° C. for another 72 h. Celltiter-Glo Luminescent cell viability assay was performed.
(§3) The cell proliferation rate corresponding to each well was calculated according to the following formula: proliferation %=(test compound well G3-GO average value)/(DMSO control well G3 average value -GO average value)×100. According to the corresponding proliferation rate and concentration of each gradient concentration well, a gradient curve of cell proliferation was fitted using Prism Graphpad software, and GI50 (GI50 is defined as the concentration of a compound corresponding to the cell proliferation inhibition rate of 50%) of the compound was calculated.

[2] = tested on: HER2 A775_G776insYVMA mutant Ba/F3; experiment: Ba/F3 cell proliferation assay, HER2 A775_G776insYVMA mutant; details: Mus musculus, BaF3, 72 h, Celltiter-Glo cell viability; for GI50: read-out: HER2 A775_G776 ins YVMA/BaF3 GI50; for Emax: read-out: HER2 A775_G776 ins YVMA/BaF3 Imax %
Description: as §1, §2, §3

[3] = tested on: EGFR wild-type Ba/F3 cells; experiment: Ba/F3 cell proliferation assay, EGFR wild-type; details: 72 h, Celltiter-Glo cell viability; for GI50: Mus musculus, BaF3, read-out: EGFR WT/BaF3 GI50
Description: as §1, §2, §3

Structure (SMILES)	GI50 [1] [nM]	Emax [1] [%]	GI50 [2] [nM]	Emax [2] [%]	EGFR WT/BaF3 Imax % [3] [%]	GI50 [3] [nM]
C=CC(=O)N1[C@@H]2CC[C@H]1C[C@@H](Oc1ccc3ncnc(Nc4ccc(Oc5ccn6ncnc6c5)c(C)c4)c3c1)C2 [Example 1, 1-(endo-3-((4-((4-([1,2,4]Triazolo[1,5-a]pyridin-7-yloxy)-3-methylphenyl)amino)quinazolin-6-yl)oxy)-8-azabicyclo[3.2.1]octan-8-yl)prop-2-en-1-one]	4.1	100	3.4	100	97	3740
C=CC(=O)N1[C@@H]2CC[C@H]1C[C@@H](Oc1ccc3ncnc(Nc4ccc(Oc5ccc6c(c5)ncn6C)c(C)c4)c3c1)C2 [Example 2, 1-(endo-3-((4-((3-Methyl-4-((1-methyl-1H-benzo[d]imidazol-5-yl)oxy)phenyl)amino)quinazolin-6-yl)oxy)-8-azabicyclo[3.2.1]octan-8-yl)prop-2-en-1-one]	18.9	100	24	100	99	2300
C=CC(=O)N1[C@@H]2CC[C@H]1C[C@H](Oc1cc3c(Nc4ccc(Oc5ccn6ncnc6c5)c(C)c4)ncnc3cc1OC)C2 [Example 6, 1-(exo-3-((4-((4-([1,2,4]Triazolo[1,5-a]pyridin-7-yloxy)-3-methylphenyl)amino)-7-methoxyquinazolin-6-yl)oxy)-8-azabicyclo[3.2.1]octan-8-yl)prop-2-en-1-one]	25.2	100	21.4	100	–	–
C=CC(=O)N1[C@@H]2CC[C@H]1C[C@H](Oc1ccc3ncnc(Nc4ccc(Oc5cc6ncnn6cn5)c(C)c4)c3c1)C2 [Example 8, 1-(exo-3-((4-((4-([1,2,4]Triazolo[1,5-c]pyrimidin-7-yloxy)-3-methylphenyl)amino)quinazolin-6-yl)oxy)-8-azabicyclo[3.2.1]octan-8-yl)prop-2-en-1-one]	6.3	100	15.7	100	–	–
C=CC(=O)N1[C@@H]2CC[C@H]1C[C@H](Oc1ccc3ncnc(Nc4ccc(Oc5ccn6ncnc6c5)c(C)c4)c3c1)C2 [Example 9, 1-(exo-3-((4-((4-([1,2,4]Triazolo[1,5-a]pyridin-7-yloxy)-3-methylphenyl)amino)quinazolin-6-yl)oxy)-8-azabicyclo[3.2.1]octan-8-yl)prop-2-en-1-one]	13.5	100	13.8	100	–	–
C=CC(=O)N1[C@@H]2CC[C@H]1C[C@H](Oc1cc3c(Nc4ccc(Oc5ccn6ncnc6c5)c(C)c4F)ncnc3cc1OC)C2 [Example 13, 1-(exo-3-((4-((4-([1,2,4]Triazolo[1,5-a]pyridin-7-yloxy)-2-fluoro-3-methylphenyl)amino)-7-methoxyquinazolin-6-yl)oxy)-8-azabicyclo[3.2.1]octan-8-yl)prop-2-en-1-one]	4.8	100	8.2	100	–	–
C=CC(=O)N1[C@@H]2CC[C@H]1C[C@H](Oc1cc3c(Nc4ccc(Oc5ccc6c(c5)ncn6C)c(C)c4F)ncnc3cc1OC)C2 [Example 15, 1-(exo-3-((4-((2-Fluoro-3-methyl-4-((1-methyl-1H-benzo[d]imidazol-5-yl)oxy)phenyl)amino)-7-methoxyquinazolin-6-yl)oxy)-8-azabicyclo[3.2.1]octan-8-yl)prop-2-en-1-one]	14.9	100	19.4	100	–	–
C=CC(=O)N1[C@@H]2CC[C@H]1C[C@@H](Oc1cc3c(Nc4ccc(Oc5ccn6ncnc6c5)c(C)c4)ncnc3cn1)C2 [Example 16, 1-(endo-3-((4-((4-([1,2,4]Triazolo[1,5-a]pyridin-7-yloxy)-3-methylphenyl)amino)pyrido[3,4-d]pyrimidin-6-yl)oxy)-8-azabicyclo[3.2.1]octan-8-yl)prop-2-en-1-one]	9	100	15.7	100	73	7350
C=CC(=O)N1[C@@H]2CC[C@H]1C[C@@H](Oc1cc3c(Nc4ccc(Oc5ccn6ncnc6c5)c(C)c4F)ncnc3cc1OCC)C2 [Example 17, 1-(endo-3-((4-((4-([1,2,4]Triazolo[1,5-a]pyridin-7-yloxy)-2-fluoro-3-methylphenyl)amino)-7-ethoxyquinazolin-6-yl)oxy)-8-azabicyclo[3.2.1]octan-8-yl)prop-2-en-1-one]	5.1	100	13.9	100	–	–
C=CC(=O)N1[C@@H]2CC[C@H]1C[C@H](Oc1ccc3ncnc(Nc4ccc(Oc5ccc6c(c5)ncn6C)c(C)c4F)c3c1)C2 [Example 19, 1-(exo-3-((4-((2-Fluoro-3-methyl-4-((1-methyl-1H-benzo[d]imidazol-5-yl)oxy)phenyl)amino)quinazolin-6-yl)oxy)-8-azabicyclo[3.2.1]octan-8-yl)prop-2-en-1-one]	14.9	100	27	100	–	–
C=CC(=O)N1[C@@H]2CC[C@H]1C[C@@H](Oc1cc3c(Nc4ccc(Oc5ccn6ncnc6c5)c(C)c4F)ncnc3cn1)C2 [Example 20, 1-(endo-3-((4-((4-([1,2,4]Triazolo[1,5-a]pyridin-7-yloxy)-2-fluoro-3-methylphenyl)amino)pyrido[3,4-d]pyrimidin-6-yl)oxy)-8-azabicyclo[3.2.1]octan-8-yl)prop-2-en-1-one]	13.2	100	15.5	100	100	3510
C=CC(=O)N1[C@@H]2CC[C@H]1C[C@H](Oc1cc3c(Nc4ccc(Oc5ccn6ncnc6c5)c(C)c4F)ncnc3cn1)C2 [Example 21, 1-(exo-3-((4-((4-([1,2,4]Triazolo[1,5-a]pyridin-7-yloxy)-2-fluoro-3-methylphenyl)amino)pyrido[3,4-d]pyrimidin-6-yl)oxy)-8-azabicyclo[3.2.1]octan-8-yl)prop-2-en-1-one]	5.3	100	10.4	100	100	913
C=CC(=O)N1[C@@H]2CC[C@H]1C[C@H](Oc1cc3c(Nc4ccc(Oc5ccc6c(c5)ncn6C)c(C)c4F)ncnc3cn1)C2 [Example 27, 1-(exo-3-((4-((2-Fluoro-3-methyl-4-((1-methyl-1H-benzo[d]iimidazol-5-yl)oxy)phenyl)amino)pyrido[3,4-d]pyrimidin-6-yl)oxy)-8-azabicyclo[3.2.1]octan-8-yl)prop-2-en-1-one]	12.5	100	–	–	–	–
C=CC(=O)N1[C@@H]2CC[C@H]1C[C@H](Oc1cc3c(Nc4ccc(Oc5ccc6c(c5)ncn6C)c(C)c4)ncnc3cn1)C2 [Example 28, 1-(exo-3-((4-((3-Methyl-4-((1-methyl-1H-benzo[d]iimidazol-5-yl)oxy)phenyl)amino)pyrido[3,4-d]pyrimidin-6-yl)oxy)-8-azabicyclo[3.2.1]octan-8-yl)prop-2-en-1-one]	18.1	100	–	–	−1.76	> 10000
Cc1cc(Nc2ncnc3ccc(NC4=NC(C)(C)CO4)cc23)ccc1Oc1ccn2ncnc2c1 [Tucatinib, tucatinib, reference compound]	–	–	–	100	–	–
